Key:
nitrification [1] = assay: inhibition of nitrification in soil incubation (NI); settings: soil incubated at 20° C., 14 days; for NI @ 0.1%: compound at 0.1% of nitrogen N; for NI @ 1%: compound at 1% of nitrogen N; for NI @ 0.3%: compound at 0.3% of nitrogen N
Experimental: The compounds of the invention have been tested as follows in terms of the inhibition of nitrification:
100 g soil is filled into 500 ml plastic bottles (e.g. soil sampled from the field) and is moistened to 50% water holding capacity. The soil is incubated at 20° C. for two weeks to activate the microbial biomass. 1 ml test solution, containing the compound of formula I in the appropriate concentration (usually 0.1, 0.3 or 1% of nitrogen N), or DMSO and 10 mg nitrogen in the form of ammoniumsulfate-N is added to the soil and everything mixed well. Bottles are capped but loosely to allow air exchange. The bottles are then incubated at 20° C. for 0 and 14 days.
For analysis, 300 ml of a 1% K2SO4-solution is added to the bottle containing the soil and shaken for 2 hours in a horizontal shaker at 150 rpm. Then the whole solution is filtered through a filter (Macherey-Nagel Filter MN 807%). Ammonium and nitrate content is then analyzed in the filtrate in an autoanalyzer at 550 nm (Merck, AA11).
The inhibition (NI® a specified concentration) is calculated as follows: […]

nitrification [2] = assay: % NH4-N recovery from fertilized NH4-N in soil Limburgerhof; settings: 20° C.
Experimental: The compounds according to the invention have been further tested in terms of their % NH4—N recovery from fertilized NH4—N.
The compounds according to general formula I were tested as follows in terms of the inhibition of nitrification:
100 g soil (soil Limburgerhof with pH(CaCl2) 6.8; 73% sand, 23% silt, 4% clay, which is classified according to FAO as a sandy loam) is filled into 500 ml plastic bottles and is moistened to 50% water holding capacity. The soil is incubated at 20° C. for two weeks prior to the experiments to activate the microbial biomass. 1 ml test solution, containing the compounds of formula I or the comparative compounds in the appropriate concentration (0.1, 0.3 or 1% (w/w) of fertilized NH4—N), and 10 mg nitrogen in the form of ammoniumsulfate-N(NH4—N) is added to the soil and everything mixed well. Unfertilized controls received 1 ml pure water. Bottles are capped but loosely to allow air exchange. The bottles are then incubated at 20° C. for 14 days and 28 days.
For analysis, 300 ml of a 1% K2SO4-solution is added to the bottle containing the soil and shaken for 2 hours in a horizontal shaker at 150 rpm. Then the whole solution is filtered through a filter (Macherey-Nagel Filter MN 807%). Ammonium content is then analyzed in the filtrate using an autoanalyzer. Ammonium was quantified via an indophenol blue dye at 660 nm.
The nitrification inhibition is expressed as % of NH4—N recovery from fertilized NH4—N(100%) after subtraction of unfertilized control soil. The number of replicates is 4.
For comparison of the % NH4—N recovery of the compound of the invention, i.e. Example 4, with the comparative compounds as shown above from different trials, the standard deviation of a common treatment of all trials with DMPP (3,4-dimethylpyrazole phosphate) was calculated. As the standard deviation was low, data from different trials were pooled together to compare the average % NH4—N recovery for the compound of the invention and the comparative compounds as shown above.

N2O emission = assay: reduction of N2O emission, potted corn plants in greenhouse soil; parameters: species or system Zea mais; settings: 100 ppm ammonium sulfate, cumulated emissions over two weeks, relative to untreated but fertilized control
Experimental: Example 2 was additionally tested in terms of the reduction of N20 emission Corn seeds (Zea mais, cultivar “Shorty”) were planted 1 seed/pot in 8 cm pots in standard greenhouse soil (mixture of peat, loam and sand) and grown in a greenhouse at 20° C. and 60% humidity. Plants were grown for ten days in a completely randomized set-up. On day 6, plants were watered but not fertilized to 50% water holding capacity then left to dry out. On day ten, the plants were separated out and each pot set onto a plant saucer designed with an inner compartment for the pot and an outer ring that is filled with water. At time 0 water with or without 100 ppm ammonium sulfate and with or without the given concentration of nitrification inhibitor (1% and 0.3%) was applied to the plant such that the water holding capacity of the soil was around 50-60%. Then a gas sampling chamber was placed over the plant saucer such that the rim fit into the ring filled with water to create a gas-tight chamber and 20 cc air from the chamber were drawn into a syringe and immediately emptied in to a Vacutainer (Labco, 12 ml volume). […] Samples were analyzed in a Shimadzu 2014 GC equipped with an ECD system. Data was calculated as the cumulated emissions over the measurement period and the % reduction of N20 emissions relative to the untreated but fertilized control was calculated.

| Structure (SMILES) | NI @ 0.1% (nitrification [1]) [%] | NI @ 1% (nitrification [1]) [%] | NI @ 0.3% (nitrification [1]) [%] | % NH4—N recovery after 14 days (nitrification [2]; 0.1 wt.-% relative to NH4—N) [%] | % NH4—N recovery after 14 days (nitrification [2]; 0.3 wt.-% relative to NH4—N) [%] | % NH4—N recovery after 28 days (nitrification [2]; 0.3 wt.-% relative to NH4—N) [%] | % NH4—N recovery after 14 days (nitrification [2]; 1 wt.-% relative to NH4—N) [%] | % NH4—N recovery after 28 days (nitrification [2]; 1 wt.-% relative to NH4—N) [%] | % reduction of N2O relative to control @ 0.3% (N2O emission; nitrification inhibitor 0.3%) [%] | % reduction of N2O relative to control @ 1% (N2O emission; nitrification inhibitor 1%) [%] |
| --- | --- | --- | --- | --- | --- | --- | --- | --- | --- | --- |
| C#Cc1cc(Cl)ccn1 [Example 1] | 46 | 83 |  |  |  |  |  |  |  |  |
| C#Cc1ccc(Cl)nc1 [Example 3] | 68 | 94 | 84 |  |  |  |  |  |  |  |
| C#Cc1ccc(Cl)cn1 [Example 4] |  |  |  | 74.00 | 68.50 | 59.0 | 72.00 | 56.0 |  |  |
| Clc1cccc(C(Cl)(Cl)Cl)n1 [Comparative Example, reference compound] |  | 54 | 35 |  |  |  |  |  |  |  |
| C[Si](C)(C)C#Cc1ccccn1 [Comparative Example A] |  |  |  | 46.50 | 60.30 | 51.2 | 67.80 | 68.1 |  |  |
| C[Si](C)(C)C#Cc1ccc(Cl)cn1 [Comparative Example B] |  |  |  | 20.94 | 44.40 | 11.1 | 59.90 | 61.0 |  |  |
| C#Cc1ccc(Cl)cn1 [Example 2] | 74 | 76 |  |  |  |  |  |  | 91 | 97 |
